This note sets out measurements from patent publication US8338565B2, “Macrocyclic compounds for inhibition of tumor necrosis factor alpha” (Ensemble Therapeutics Corporation, priority 2008, dated 2012).

Numbered stars: 1 amine (or outer) side, 2 acyl side, 3 side chain; on linkers, the order of the positions; unused ones are H or OH. Bridge positions count the residues as written; N and C are the ends. Square brackets hold non-standard residues; d marks the D form. Peptide text beside a SMILES is read from it. * marks the point of attachment. Tartaroyl(2R,3R-(OAc)2) = CC(=O)O[C@@H](C(=O)[*:1])[C@@H](OC(C)=O)C(=O)[*:2]; Gly(N-(4-CH2NH-benzyl)) = O=C(CN(Cc1ccc(CN[*:3])cc1)[*:1])[*:2]; Phe(4-(2-MeO-Ph)) = COc1ccccc1-c1ccc(C[C@H](N)C(=O)O)cc1; dAla(benzothien-2-yl) = N[C@H](Cc1cc2ccccc2s1)C(=O)O; Phe(4-CF3) = N[C@@H](Cc1ccc(C(F)(F)F)cc1)C(=O)O; dPhe(3-CF3) = N[C@H](Cc1cccc(C(F)(F)F)c1)C(=O)O; dPhe(2-CF3) = N[C@H](Cc1ccccc1C(F)(F)F)C(=O)O; Bip = N[C@@H](Cc1ccc(-c2ccccc2)cc1)C(=O)O; dPhe(4-NH2) = Nc1ccc(C[C@@H](N)C(=O)O)cc1; Phe(4-Br) = N[C@@H](Cc1ccc(Br)cc1)C(=O)O; Phe(4-NH2) = Nc1ccc(C[C@H](N)C(=O)O)cc1; dAla(2-furyl) = N[C@H](Cc1ccco1)C(=O)O; dIgl = N[C@@H](C(=O)O)C1Cc2ccccc2C1; d(hPhe) = N[C@H](CCc1ccccc1)C(=O)O; d2Thi = N[C@H](Cc1cccs1)C(=O)O; Suc = O=C(CCC(=O)[*:2])[*:1]; Bn = c1ccc(C*)cc1

T1 sequence (P01375 77-233 limits assumed, species assumed): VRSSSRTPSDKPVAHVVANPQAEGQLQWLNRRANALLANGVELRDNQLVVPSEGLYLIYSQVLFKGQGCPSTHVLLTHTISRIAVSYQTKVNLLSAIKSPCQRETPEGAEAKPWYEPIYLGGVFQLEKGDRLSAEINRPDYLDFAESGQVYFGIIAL

The test concerns the target T1, TNFα / TNFα receptor (TNFα R1/Fc) (Homo sapiens, UniProt P01375).
T1 construct: purchased R&D Systems
The experiment in a line: Inhibition of binding of TNFα to the TNFα receptor (plate ELISA competition). The conditions noted are these: Table 2; read-out: Activity (IC50, inhibition of TNFα binding to TNFα R1/Fc). A digest of the protocol:
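Plates were coated with TNFα at 15 nM. Test compound and 8.33 nM receptor-Fc (PBST, 2% DMSO) were first mixed in solution for 30 min at room temperature, then transferred to the plates for another 30 min. Competition was read by absorbance at 450 nm after HRP anti-human IgG Fc detection with TMB.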
(In an ELISA, binding on a coated surface is turned into a signal by an enzyme label.)
Regarding `O=C1COc2ccc(cc2)C[C@@H](C(=O)O)NC(=O)[C@@H](CCc2ccccc2)NC(=O)[C@H](Cc2ccc(Cl)cc2Cl)NC(=O)[C@@H](Cc2cccs2)N1` [Compound 147], the IC50 is 30 to 100 µM.
For `O=C1COc2ccc(cc2)C[C@@H](C(=O)O)NC(=O)[C@@H](CCc2ccccc2)NC(=O)[C@H](Cc2ccc(Cl)cc2Cl)NC(=O)[C@@H](Cc2ccc(C(F)(F)F)cc2)N1` [Compound 148], the IC50 fell in the range of 30 to 100 µM.
For the compound `O=C1COc2ccc(cc2)C[C@@H](C(=O)O)NC(=O)[C@@H](CCc2ccccc2)NC(=O)[C@H](Cc2ccc(Cl)cc2Cl)NC(=O)[C@@H](CCc2ccccc2)N1` [Compound 149], the IC50 fell in the range of 10 to 30 µM.
The value for `O=C1COc2ccc(cc2)C[C@@H](C(=O)O)NC(=O)[C@@H](CCc2ccccc2)NC(=O)[C@H](Cc2ccc(-c3ccccc3)cc2)NC(=O)[C@@H](Cc2ccc(C(F)(F)F)cc2)N1` [Compound 150] was 30 to 100 µM; that for `O=C1COc2ccc(cc2)C[C@@H](C(=O)O)NC(=O)[C@@H](CCc2ccccc2)NC(=O)[C@H](Cc2ccc(C(F)(F)F)cc2)NC(=O)[C@@H](CCc2ccccc2)N1` [Compound 151] was 30 to 100 µM.
The value for `O=C1CCC(=O)N[C@H](Cc2ccccc2)C(=O)N[C@@H](Cc2ccc(Br)cc2)C(=O)N[C@H](Cc2ccco2)C(=O)N[C@@H](C(=O)O)Cc2ccc(cc2)N1` [Compound 153] ([dF][Phe(4-Br)][dAla(2-furyl)][dPhe(4-NH2)]-OH; linker N-4 via Suc) was above 100 µM; that for `CC(=O)O[C@H]1C(=O)Nc2ccc(cc2)C[C@H](C(=O)O)NC(=O)[C@@H](Cc2ccco2)NC(=O)[C@H](Cc2ccc(Br)cc2)NC(=O)[C@@H](Cc2cccs2)NC(=O)[C@@H]1OC(C)=O` [Compound 154] ([d2Thi][Phe(4-Br)][dAla(2-furyl)][dPhe(4-NH2)]-OH; linker N-4 via Tartaroyl(2R,3R-(OAc)2)) was above 100 µM.
The value for `O=C1N[C@H](Cc2ccco2)C(=O)N[C@@H](C(=O)O)Cc2ccc(cc2)NC(=O)[C@H](O)[C@@H](O)C(=O)N[C@H](Cc2cccs2)C(=O)N[C@H]1Cc1ccc(Br)cc1` [Compound 155] was above 100 µM; that for `O=C1CCC(=O)N[C@H](Cc2cccs2)C(=O)N[C@@H](Cc2ccc(Br)cc2)C(=O)N[C@H](Cc2ccco2)C(=O)N[C@@H](C(=O)O)Cc2ccc(cc2)N1` [Compound 159] ([d2Thi][Phe(4-Br)][dAla(2-furyl)][dPhe(4-NH2)]-OH; linker N-4 via Suc) was 10 to 30 µM.
`CC(=O)O[C@H]1C(=O)Nc2ccc(cc2)C[C@H](C(=O)O)NC(=O)[C@@H](Cc2ccco2)NC(=O)[C@H](Cc2ccc(Br)cc2)NC(=O)[C@@H](Cc2ccccc2)NC(=O)[C@@H]1OC(C)=O` [Compound 160] ([dF][Phe(4-Br)][dAla(2-furyl)][dPhe(4-NH2)]-OH; linker N-4 via Tartaroyl(2R,3R-(OAc)2)): the IC50 lay in the range of 30 to 100 µM.
Turning to `O=C1N[C@H](Cc2ccco2)C(=O)N[C@@H](C(=O)O)Cc2ccc(cc2)NC(=O)[C@H](O)[C@@H](O)C(=O)N[C@H](Cc2ccccc2)C(=O)N[C@H]1Cc1ccc(Br)cc1` [Compound 161], the IC50 was above 100 µM.
The value for `COc1ccc(C[C@H]2NC(=O)CCC(=O)Nc3ccc(cc3)C[C@@H](C(=O)O)NC(=O)[C@@H](Cc3ccccc3)NC(=O)[C@H](Cc3ccc(C(F)(F)F)cc3)NC2=O)cc1` [Compound 162] ([dY](Me)[Phe(4-CF3)][dF][Phe(4-NH2)]-OH; linker N-4 via Suc) was above 100 µM; that for `O=C1CCC(=O)N[C@H](Cc2ccccc2C(F)(F)F)C(=O)N[C@@H](Cc2ccc(C(F)(F)F)cc2)C(=O)N[C@H](Cc2ccccc2)C(=O)N[C@H](C(=O)O)Cc2ccc(cc2)N1` [Compound 163] ([dPhe(2-CF3)][Phe(4-CF3)][dF][Phe(4-NH2)]-OH; linker N-4 via Suc) was 30 to 100 µM.
The value for `O=C1CCC(=O)N[C@H](Cc2cc3ccccc3s2)C(=O)N[C@@H](Cc2ccc(C(F)(F)F)cc2)C(=O)N[C@H](Cc2ccccc2)C(=O)N[C@H](C(=O)O)Cc2ccc(cc2)N1` [Compound 164] ([dAla(benzothien-2-yl)][Phe(4-CF3)][dF][Phe(4-NH2)]-OH; linker N-4 via Suc) was 30 to 100 µM.
`O=C1CCC(=O)N[C@H](C2Cc3ccccc3C2)C(=O)N[C@@H](Cc2ccc(C(F)(F)F)cc2)C(=O)N[C@H](Cc2ccccc2)C(=O)N[C@H](C(=O)O)Cc2ccc(cc2)N1` [Compound 165] ([dIgl][Phe(4-CF3)][dF][Phe(4-NH2)]-OH; linker N-4 via Suc): the IC50 was above 100 µM.
The value for `O=C1CCC(=O)N[C@H](Cc2cccc(C(F)(F)F)c2)C(=O)N[C@@H](Cc2ccc(C(F)(F)F)cc2)C(=O)N[C@H](Cc2ccccc2)C(=O)N[C@H](C(=O)O)Cc2ccc(cc2)N1` [Compound 166] ([dPhe(3-CF3)][Phe(4-CF3)][dF][Phe(4-NH2)]-OH; linker N-4 via Suc) was 30 to 100 µM; that for `COc1ccccc1-c1ccc(C[C@@H]2NC(=O)[C@@H](CCc3ccccc3)NC(=O)CCC(=O)Nc3ccc(cc3)C[C@@H](C(=O)O)NC(=O)[C@@H](Cc3ccccc3)NC2=O)cc1` [Compound 167] ([d(hPhe)][Phe(4-(2-MeO-Ph))][dF][Phe(4-NH2)]-OH; linker N-4 via Suc) was above 100 µM; that for `COc1ccc(-c2ccc(C[C@@H]3NC(=O)[C@@H](CCc4ccccc4)NC(=O)CCC(=O)Nc4ccc(cc4)C[C@@H](C(=O)O)NC(=O)[C@@H](Cc4ccccc4)NC3=O)cc2)cc1` [Compound 168] was 30 to 100 µM.
As to `O=C1CCC(=O)N[C@H](CCc2ccccc2)C(=O)N[C@@H](Cc2ccc(-c3cccc(O)c3)cc2)C(=O)N[C@H](Cc2ccccc2)C(=O)N[C@H](C(=O)O)Cc2ccc(cc2)N1` [Compound 169], the IC50 is above 100 µM.
The value for `O=C1CCC(=O)N[C@H](CCc2ccccc2)C(=O)N[C@@H](Cc2ccc(-c3ccccc3Cl)cc2)C(=O)N[C@H](Cc2ccccc2)C(=O)N[C@H](C(=O)O)Cc2ccc(cc2)N1` [Compound 170] was 30 to 100 µM.
The value for `O=C1CCC(=O)N[C@H](CCc2ccccc2)C(=O)N[C@@H](Cc2ccc(-c3cccc(Cl)c3)cc2)C(=O)N[C@H](Cc2ccccc2)C(=O)N[C@H](C(=O)O)Cc2ccc(cc2)N1` [Compound 171] was above 100 µM; that for `O=C1CCC(=O)N[C@H](CCc2ccccc2)C(=O)N[C@@H](Cc2ccc(-c3ccccc3)cc2)C(=O)N[C@H](Cc2ccccc2)C(=O)N[C@@H](C(=O)O)Cc2ccc(cc2)N1` [Compound 172] ([d(hPhe)][Bip][dF][dPhe(4-NH2)]-OH; linker N-4 via Suc) was below 10 µM.
For `O=C1CCC(=O)N[C@H](CCc2ccccc2)C(=O)N[C@@H](Cc2ccc(OCc3ccccc3)cc2)C(=O)N[C@H](Cc2ccccc2)C(=O)N[C@@H](C(=O)O)Cc2ccc(cc2)N1` [Compound 173] ([d(hPhe)]Y(Bn)[dF][dPhe(4-NH2)]-OH; linker N-4 via Suc), the IC50 lay in the range of 10 to 30 µM.
The value for `O=C(O)CCNC(=O)[C@@H]1Cc2ccc(cc2)NC(=O)[C@H](O)[C@@H](O)C(=O)N[C@H](Cc2cccs2)C(=O)N[C@@H](Cc2ccc(-c3ccccc3)cc2)C(=O)N[C@H](Cc2ccccc2)C(=O)N1` [Compound 175] was below 10 µM; that for `CC(C)(NC(=O)[C@@H]1Cc2ccc(cc2)NC(=O)[C@H](O)[C@@H](O)C(=O)N[C@H](Cc2cccs2)C(=O)N[C@@H](Cc2ccc(-c3ccccc3)cc2)C(=O)N[C@H](Cc2ccccc2)C(=O)N1)C(=O)O` [Compound 176] was above 100 µM.
The value for `O=C(O)[C@@H]1Cc2ccc(cc2)NC(=O)[C@H](O)[C@@H](O)C(=O)N[C@H](Cc2cccs2)C(=O)N[C@@H](Cc2ccc(OCc3ccccc3)cc2)C(=O)N[C@H](Cc2ccccc2)C(=O)N1` [Compound 177] was 30 to 100 µM; that for `O=C(O)[C@@H]1Cc2ccc(cc2)NC(=O)[C@H](O)[C@@H](O)C(=O)N[C@H](Cc2cccs2)C(=O)N[C@@H](Cc2ccc(C(F)(F)F)cc2)C(=O)N[C@H](Cc2ccccc2)C(=O)N1` [Compound 178] was above 100 µM; that for `O=C1CCC(=O)N[C@H](CCc2ccccc2)C(=O)N[C@@H](Cc2ccc(-c3cccc(F)c3)cc2)C(=O)N[C@H](Cc2ccccc2)C(=O)N[C@H](C(=O)O)Cc2ccc(cc2)N1` [Compound 181] was 10 to 30 µM.
The value for `O=C1CCC(=O)N[C@H](CCc2ccccc2)C(=O)N[C@@H](Cc2ccc(-c3cc(F)cc(F)c3)cc2)C(=O)N[C@H](Cc2ccccc2)C(=O)N[C@H](C(=O)O)Cc2ccc(cc2)N1` [Compound 182] was 30 to 100 µM; that for `O=C1CCC(=O)N[C@H](CCc2ccccc2)C(=O)NC(c2ccc(Br)cc2)C(=O)N[C@H](Cc2ccccc2)C(=O)N[C@H](C(=O)O)Cc2ccc(cc2)N1` (some centres unmarked) [Compound 183] was 10 to 30 µM.
With `O=C1N[C@H](Cc2ccccc2)C(=O)N[C@@H](C(=O)O)Cc2ccc(cc2)NC(=O)[C@H](O)[C@@H](O)C(=O)N[C@H](Cc2cccs2)C(=O)N[C@H]1Cc1ccc(-c2ccccc2)cc1` [Compound 184], the IC50 was above 100 µM.
The value for `O=C(O)[C@@H]1Cc2ccc(cc2)NC(=O)[C@@H](O)[C@H](O)C(=O)N[C@H](Cc2cccs2)C(=O)N[C@@H](Cc2ccc(-c3ccccc3)cc2)C(=O)N[C@H](Cc2ccccc2)C(=O)N1` [Compound 185] was above 100 µM.
As to `O=C(O)CN1Cc2ccc(cc2)CNC(=O)CCC(=O)N[C@H](Cc2cccs2)C(=O)N[C@@H](Cc2ccc(-c3ccccc3)cc2)C(=O)N[C@H](Cc2ccccc2)C1=O` [Compound 186] ([d2Thi][Bip][dF][Gly(N-(4-CH2NH-benzyl))]-OH; linker N-4 via Suc), the IC50 fell in the range of 30 to 100 µM.
The value for `O=C(O)[C@@H]1Cc2ccc(cc2)NC(=O)[C@@H]2CCCC[C@@H]2C(=O)N[C@H](Cc2cccs2)C(=O)N[C@@H](Cc2ccc(-c3ccccc3)cc2)C(=O)N[C@H](Cc2ccccc2)C(=O)N1` [Compound 187] was above 100 µM; that for `O=C(O)[C@@H]1Cc2ccc(cc2)NC(=O)[C@H](O)[C@@H](O)C(=O)N[C@H](Cc2cccs2)C(=O)N[C@@H](Cc2ccc(-c3cccc(O)c3)cc2)C(=O)N[C@H](Cc2ccccc2)C(=O)N1` [Compound 188] was above 100 µM.
